Results reported in ChEMBL document CHEMBL1201862, “PubChem BioAssay data set” (2004).
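Five concentrations, 48 hours, 96-well plates. Abbreviation: GI50, concentration required for 50% inhibition of growth.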 Active and inactive are the calls of the source. Rule as the data show it: active = GI50 up to about 1.1 µM and inactive = higher. Where a SMILES comes first, the peptide text is derived from it. The star is where a group is joined. Fmoc = O=C(OCC1c2ccccc2-c2ccccc21)*; Boc = CC(C)(C)OC(=O)*

Legend:
Assay in all cases: NCI-60 cell line screen, 48 h
A549 = test system: A549
MDA-MB-435 = test system: MDA-MB-435
SNB-75 = test system: SNB-75
TK-10 = test system: TK-10
MCF7 = test system: MCF7
MDA-N = test system: MDA-N
NCI-H460 = test system: NCI-H460
SF-295 = test system: SF-295
OVCAR-8 = test system: OVCAR-8
CCRF-CEM = test system: CCRF-CEM
SK-MEL-5 = test system: SK-MEL-5
SW-620 = test system: SW-620
EKVX = test system: EKVX
NCI-H226 = test system: NCI-H226
DU-145 = test system: DU-145
T47D = test system: T47D
HT-29 = test system: HT-29
A498 = test system: A498
SR = test system: SR

Structure (SMILES) | GI50 (A549) | GI50 (MDA-MB-435) | GI50 (SNB-75) | GI50 (TK-10) | GI50 (MCF7) | GI50 (MDA-N) | GI50 (NCI-H460) | GI50 (SF-295) | GI50 (OVCAR-8) | GI50 (CCRF-CEM) | GI50 (SK-MEL-5) | GI50 (SW-620) | GI50 (EKVX) | GI50 (NCI-H226) | GI50 (DU-145) | GI50 (T47D) | GI50 (HT-29) | GI50 (A498) | GI50 (SR)
COc1cc(C=C2C(=O)NC(=S)NC2=O)cc(OC)c1OC | > 100 µM (inactive) | > 100 µM (inactive) | 60.7 µM (inactive) | > 100 µM (inactive) | > 100 µM (inactive) | > 100 µM (inactive) | > 100 µM (inactive) | > 100 µM (inactive) | > 100 µM (inactive) | > 100 µM (inactive) | > 100 µM (inactive) | > 100 µM (inactive) | > 100 µM (inactive) | > 100 µM (inactive) | > 100 µM (inactive) | > 100 µM (inactive) | > 100 µM (inactive) | – | –
CC(C)(CO)NC(=O)Nc1c(C(F)(F)F)cc(-c2ccccc2)[nH]c1=O | > 100 µM (inactive) | > 100 µM (inactive) | – | > 100 µM (inactive) | > 100 µM (inactive) | > 100 µM (inactive) | > 100 µM (inactive) | > 100 µM (inactive) | > 100 µM (inactive) | > 100 µM (inactive) | > 100 µM (inactive) | > 100 µM (inactive) | > 100 µM (inactive) | > 100 µM (inactive) | > 100 µM (inactive) | > 100 µM (inactive) | > 100 µM (inactive) | > 100 µM (inactive) | –
N#Cc1sc2c(c1OC(=O)c1cccs1)c(=O)n(-c1ccccc1)c(=S)n2-c1ccccc1 | 31 µM (inactive) | 29.9 µM (inactive) | 38.7 µM (inactive) | 31 µM (inactive) | 21.5 µM (inactive) | 26.7 µM (inactive) | 28.2 µM (inactive) | 21 µM (inactive) | 25.9 µM (inactive) | > 10 µM (inactive) | 16 µM (inactive) | 21.8 µM (inactive) | 33.2 µM (inactive) | 19.5 µM (inactive) | 32.4 µM (inactive) | 10.9 µM (inactive) | 29.5 µM (inactive) | – | 25.6 µM (inactive)
c1ccc2c(c1)cc1n2CCc2c-1[nH]c1ccccc21 | > 10 µM (inactive) | > 10 µM (inactive) | > 10 µM (inactive) | > 10 µM (inactive) | > 10 µM (inactive) | > 10 µM (inactive) | > 10 µM (inactive) | > 10 µM (inactive) | > 10 µM (inactive) | > 10 µM (inactive) | > 10 µM (inactive) | > 10 µM (inactive) | > 10 µM (inactive) | > 10 µM (inactive) | > 10 µM (inactive) | 3.01 µM (inactive) | > 10 µM (inactive) | – | > 10 µM (inactive)
CC(C)C1/C(=N/O)CC(c2ccccc2)N(N=O)C1c1ccccc1 (configuration not stated) | 30.1 µM (inactive) | 26.7 µM (inactive) | 38.8 µM (inactive) | 62.2 µM (inactive) | 32.4 µM (inactive) | 39.2 µM (inactive) | 24.7 µM (inactive) | 30.5 µM (inactive) | 57 µM (inactive) | 26.9 µM (inactive) | 30.2 µM (inactive) | 40.6 µM (inactive) | 20.9 µM (inactive) | 37.1 µM (inactive) | 34 µM (inactive) | 39.6 µM (inactive) | 21.2 µM (inactive) | – | –
COC(=O)C1Cc2c([nH]c3ccccc23)-c2[nH]c3ccccc3c2CC(NC(C)=O)C(=O)NCC(=O)N1 (configuration not stated) | > 100 µM (inactive) | > 100 µM (inactive) | > 100 µM (inactive) | > 100 µM (inactive) | > 100 µM (inactive) | > 100 µM (inactive) | > 100 µM (inactive) | > 100 µM (inactive) | > 100 µM (inactive) | > 100 µM (inactive) | > 100 µM (inactive) | > 100 µM (inactive) | > 100 µM (inactive) | > 100 µM (inactive) | > 100 µM (inactive) | > 100 µM (inactive) | > 100 µM (inactive) | – | –
CCCCc1ccc(N2C(=O)c3cc([N+](=O)[O-])cnc3S2(=O)=O)cc1 | > 100 µM (inactive) | > 100 µM (inactive) | > 100 µM (inactive) | > 100 µM (inactive) | 59.8 µM (inactive) | > 100 µM (inactive) | > 100 µM (inactive) | 47.2 µM (inactive) | > 100 µM (inactive) | > 10 µM (inactive) | > 100 µM (inactive) | > 100 µM (inactive) | > 100 µM (inactive) | > 100 µM (inactive) | – | > 100 µM (inactive) | > 100 µM (inactive) | > 100 µM (inactive) | 43.3 µM (inactive)
CCOC(=O)c1c(CN2CCNCC2)nc2ccccc2c1-c1ccccc1 | 16.7 µM (inactive) | 14.3 µM (inactive) | 7.03 µM (inactive) | 14.3 µM (inactive) | 14.3 µM (inactive) | 10.9 µM (inactive) | 14.3 µM (inactive) | 15.1 µM (inactive) | 15.8 µM (inactive) | 12.7 µM (inactive) | 13.6 µM (inactive) | 17.1 µM (inactive) | 15.5 µM (inactive) | 18.6 µM (inactive) | 17.5 µM (inactive) | 13.9 µM (inactive) | 5.41 µM (inactive) | 14.6 µM (inactive) | –
CCCN1C(=O)CC(C)N(Cc2ccccc2Cl)C1=S (configuration not stated) | 35.3 µM (inactive) | 23.7 µM (inactive) | – | 25 µM (inactive) | 26.5 µM (inactive) | 21.5 µM (inactive) | 31 µM (inactive) | 31.9 µM (inactive) | 27.2 µM (inactive) | 44.5 µM (inactive) | 17.8 µM (inactive) | 30.8 µM (inactive) | 27.9 µM (inactive) | – | 26.4 µM (inactive) | 10.6 µM (inactive) | 37.9 µM (inactive) | 14.2 µM (inactive) | –
CC1=CC(C)C/C=C/C2C3OC3(C)C(C)C3C(Cc4c[nH]c5ccccc45)NC(=O)C23C(=O)C=CC(=O)C1O (configuration not stated) | 8.3 µM (inactive) | 17.9 µM (inactive) | 0.728 µM (active) | 1.53 µM (inactive) | 5.78 µM (inactive) | 5.53 µM (inactive) | 12.8 µM (inactive) | 11.9 µM (inactive) | 19.5 µM (inactive) | 0.247 µM (active) | 10.7 µM (inactive) | 2.02 µM (inactive) | 1.19 µM (inactive) | 12.9 µM (inactive) | 14.1 µM (inactive) | 1.65 µM (inactive) | 1.42 µM (inactive) | 0.213 µM (active) | –
C[C@]12CCC(=O)C=C1CC[C@@H]1[C@@H]2CC[C@]2(C)C(=O)/C(=C/c3ccncc3)C[C@@H]12 | 16.4 µM (inactive) | 17.1 µM (inactive) | 19.6 µM (inactive) | 18.1 µM (inactive) | 11.5 µM (inactive) | 20.1 µM (inactive) | 12.3 µM (inactive) | 15.3 µM (inactive) | 23.3 µM (inactive) | 14.7 µM (inactive) | 8.97 µM (inactive) | 23.8 µM (inactive) | 14.6 µM (inactive) | 16.9 µM (inactive) | 14.5 µM (inactive) | 15.9 µM (inactive) | 10.2 µM (inactive) | – | 4.75 µM (inactive)
O=C(N/N=C(COc1ccccc1)\N=C\c1ccncc1)c1ccncc1 | > 100 µM (inactive) | > 100 µM (inactive) | 34.5 µM (inactive) | > 100 µM (inactive) | > 100 µM (inactive) | > 100 µM (inactive) | > 100 µM (inactive) | > 100 µM (inactive) | > 100 µM (inactive) | > 100 µM (inactive) | – | > 100 µM (inactive) | > 100 µM (inactive) | – | > 100 µM (inactive) | > 100 µM (inactive) | > 100 µM (inactive) | > 100 µM (inactive) | –
O=C1C(Cl)=C(Cl)C(=O)C2=C1C1c3ccccc3C2c2ccccc21 | 99.1 µM (inactive) | 77.4 µM (inactive) | > 100 µM (inactive) | 83.9 µM (inactive) | 71.4 µM (inactive) | > 100 µM (inactive) | 32.5 µM (inactive) | 41.5 µM (inactive) | > 100 µM (inactive) | 59 µM (inactive) | > 100 µM (inactive) | 29.4 µM (inactive) | > 100 µM (inactive) | > 100 µM (inactive) | > 100 µM (inactive) | 25.3 µM (inactive) | > 100 µM (inactive) | > 100 µM (inactive) | –
Cc1occc1C(=S)Nc1ccc(Cl)c(C(=O)OCC(C)C)c1 | 20.3 µM (inactive) | 16.5 µM (inactive) | 15.3 µM (inactive) | 17.3 µM (inactive) | 14.6 µM (inactive) | 21.1 µM (inactive) | 22.3 µM (inactive) | 16.6 µM (inactive) | 15.8 µM (inactive) | 26.5 µM (inactive) | 15.4 µM (inactive) | 19.2 µM (inactive) | 15.6 µM (inactive) | 15.3 µM (inactive) | 18.3 µM (inactive) | 12.8 µM (inactive) | 13.2 µM (inactive) | 15.9 µM (inactive) | –
CC(C)(C)OC(=O)NCCCCC(NC(=O)C(Cc1c[nH]c2ccccc12)NC(=O)OCC1c2ccccc2-c2ccccc21)C(=O)O (configuration not stated) (Fmoc-Trp-Lys(Boc)-OH; configuration not given here) | > 100 µM (inactive) | 49.5 µM (inactive) | 55 µM (inactive) | > 100 µM (inactive) | 22.9 µM (inactive) | 35.9 µM (inactive) | 34.7 µM (inactive) | 62.7 µM (inactive) | 44.4 µM (inactive) | 24.7 µM (inactive) | 90.2 µM (inactive) | 48.3 µM (inactive) | > 100 µM (inactive) | 43.7 µM (inactive) | 76.4 µM (inactive) | 54.7 µM (inactive) | 40.5 µM (inactive) | – | 21.9 µM (inactive)
